Results as given in patent US20050118204A1, “Methods for controlling membrane permeability of a membrane permeable substance and screening methods for a membrane permeable substance” (priority 2003, published 2005).
Each block holds one compound with its values, some of them ahead of it.

Columns and labels:
dermal fibroblast [1] = test: Enhancing effect of incorporation of Arg oligomer using substance positively changing membrane curvature (Test Example 5); assay type: cell-based; settings: Arg oligomer 1 μM, 10 minutes
Method: The enhancing effect of incorporation of an Arg oligomer was evaluated by using skin-related cells (dermal fibroblast). Dermal fibroblast (Fibrocell, produced by Kurabo Industries, Ltd.) was seeded on a 6-well plate in an amount of 3×10^4 (cell/well) and cultivated with D-MEM Culture Medium (Dulbecco's modified Eagle medium, containing 10% serum, penicillin: 50 U/mL, streptomycin: 50 μg/mL) for 2 days. After cultivating for 2 days, the culture medium was removed from the wells of the 6-well plate, and D-MEM Culture Medium adjusted to contain 1,3-butanediol in a concentration of 2.5, 5 or 10 mM was added. After incubating for 5 minutes (37° C., 5% CO2), an Arg oligomer was added to the respective plates to a concentration of 1 μM and incubated for 10 minutes. After 10 minutes, the culture medium was removed by suction, and the wells were rinsed twice with an isotonic phosphate buffer solution. 500 μL of 1% Triton X-100 was added to the respective wells, followed by shaking at room temperature under light shielding for 1 hour, to lyse the cells. After thoroughly stirring by pipetting, the contents of the respective cells were transferred by 200 μL to a 96-well black cell, and fluorescence of 535 nm was measured under excitation with a spectrophotofluorometer (microplate reader, Wallac 1420 ARVOsx) at 485 nm.

[2] = Phase change of cubic phase of lecithin/sodium cholate system on adding sucrose; assay type: physicochemical; settings: cubic phase of 22.5% water, 50.4% phosphatidylcholine, 27.1% sodium cholate by weight at 25° C
Text: The suppressing effect of incorporation of an Arg oligomer was investigated upon adding sucrose as a permeation suppressing substance, which was disclosed as a substance negatively changing the membrane curvature in Biochimica et Biophysica Acta (BBA)—Biomembranes, vol. 1285, Issue 1, p. 109-122 (1996). The inventors confirmed that a cubic phase of lecithin/sodium cholate system was constituted by utilizing lecithin (phosphatidylcholine) as a major constitutional component of the phospholipid constituting a cell membrane, and the cubic phase was changed to a hexagonal phase by adding sucrose thereto (as described in Biochim. Biophys. Acta., vol. 125, p. 563-580 (1966)). The phase change was determined by a change of the shape observed by a polarization microscope, the presence or absence of polarization with a polarizing film (a lamellar phase and a hexagonal phase were viewed brightly owing to the polarization thereof, but a cubic phase is viewed darkly), or a difference in spectrum patterns obtained by small angle X-ray scattering. The cubic phase was formed by mixing 22.5% by weight of water, 50.4% by weight of phosphatidylcholine and 27.1% by weight of sodium cholate at 25° C. When sucrose was added to the cubic phase in a proportion of 3.5% by weight or more, the cubic phase was changed to a lamellar phase. […]

dermal fibroblast [3] = test: Suppressing effect of incorporation of Arg oligomer using substance negatively changing membrane curvature (Test Example 6); assay type: cell-based; settings: Arg oligomer 1 μM, 10 minutes
Method: The suppressing effect of incorporation of an Arg oligomer was evaluated by using skin-related cells (dermal fibroblast). Dermal fibroblast (Fibrocell, produced by Kurabo Industries, Ltd.) was seeded on a 6-well plate in an amount of 3×10^4 (cell/well) and cultivated with D-MEM Culture Medium (Dulbecco's modified Eagle medium, containing 10% serum, penicillin: 50 U/mL, streptomycin: 50 μg/mL) for 2 days. After cultivating for 2 days, the culture medium was removed from the wells of the 6-well plate, and D-MEM Culture Medium adjusted to contain sucrose in a concentration of 2.5, 5 or 10 mM was added. After incubating for 5 minutes (37° C., 5% CO2), an Arg oligomer was added to the respective plates to a concentration of 1 μM and incubated for 10 minutes. After lapsing 10 minutes, the culture medium was removed by suction, and the contents of the wells were rinsed twice with an isotonic phosphate buffer solution. 500 μL of 1% Triton X-100 was added to the respective wells, followed by shaking at room temperature under light shielding for 1 hour, to lyse the cells. After thoroughly stirring by pipetting, the contents of the respective wells were transferred by 200 μL to a 96-well black cell, and fluorescence of 535 nm was measured under excitation with a spectrophotofluorometer (microplate reader, Wallac 1420 ARVOsx) at 485 nm. The addition of sucrose decreased the fluorescence intensity depending upon the concentration of sucrose by 8% with a sucrose concentration of 2.5 mM, 19% with 5 mM and 37% with 10 mM, in comparison to the case where no sucrose was added. According to the aforementioned experimentation, sucrose is a compound changing the membrane curvature to concave, and it is considered that the change of the membrane suppresses the membrane permeability of the Arg oligomer.

erythrocytes = test: Influence of osmotic pressure on membrane permeation of Tat Peptide (48-60) into erythrocyte (Test Example 4); assay type: cell-based, sheep; settings: 10 μM, 37° C, 10 minutes; hypotonic versus isotonic phosphate buffer solution
Method: 5 mL of preserved sheep blood (available from Japan Biomaterial Center Co., Ltd.) was placed in a tube, and after subjecting to centrifugal separation (4° C., 3,000 g, 3 min), the supernatant fluid was removed. 5 mL of physiological saline was added thereto, followed by lightly stirring, and then subjected to centrifugal separation (4° C., 3,000 g, 3 min). The same operation was repeated to obtain an erythrocyte pellet. 400 μL of an isotonic phosphate buffer solution was added to 400 μL of the erythrocyte pellet, and after stirring, the mixture was subjected to centrifugal separation (4° C., 3,000 g, 3 min), followed by removing the supernatant fluid. The same operation was repeated to obtain an erythrocyte pellet for evaluation. […] The solution in the Coulter Counter® is replaced by a hypotonic phosphate buffer solution (70% hypotonicity), and the diameter of the erythrocytes floating in the hypotonic phosphate buffer solution was measured in the same manner as in the case of the isotonic phosphate buffer solution. The diameter of the erythrocytes in a hypertonic phosphate buffer solution (130% hypertonicity) was also measured in the same manner. […]
An erythrocyte pellet for evaluation was prepared in the same manner as in Test Example 1. […] The supernatant fluid was measured for fluorescence intensity with a microplate reader or a spectrophotofluorometer. […]

Compound: CC(O)CCO (centres unmarked) [1,3-butanediol]
increase of fluorescence intensity (Arg oligomer incorporation) versus no addition (dermal fibroblast [1]; 2.5 mM of added substance): about 15%

Compound: N#C[S-].[Na+] [sodium thiocyanate]
increase of fluorescence intensity (Arg oligomer incorporation) versus no addition (dermal fibroblast [1]; 2.5 mM of added substance): about 10% | increase of fluorescence intensity (Arg oligomer incorporation) versus no addition (dermal fibroblast [1]; 10 mM of added substance): about 15%

proportion added at which the cubic phase was changed to a lamellar phase [2]: ≥ 3.5 % by weight
Compound: OC[C@H]1O[C@@](CO)(O[C@H]2O[C@H](CO)[C@@H](O)[C@H](O)[C@H]2O)[C@@H](O)[C@@H]1O [sucrose]
decrease of fluorescence intensity (Arg oligomer incorporation) versus no sucrose (dermal fibroblast [3]; sucrose 2.5 mM): 8% | decrease of fluorescence intensity (Arg oligomer incorporation) versus no sucrose (dermal fibroblast [3]; sucrose 5 mM): 19% | decrease of fluorescence intensity (Arg oligomer incorporation) versus no sucrose (dermal fibroblast [3]; sucrose 10 mM): 37%

Compound: rhodamine-GABA-GRKKRRQRRRPPQC-NH2.8CF3COOH [Tat Peptide]
amount of the Tat Peptide which penetrated into the erythrocytes on lowering the osmotic pressure, by fluorescence intensity (erythrocytes): increased
